Measured values reported in paper PMC9888311, “Neonatal NET-Inhibitory Factor improves survival in the cecal ligation and puncture model of polymicrobial sepsis by inhibiting neutrophil extracellular traps” (Frontiers in Immunology, 2023).
Where no end group is shown, it is not given here.

Experiments:
Type in all cases: in vivo, mouse (outbred Swiss Webster)
[1] = test system: neutrophil extracellular traps (NETs), peritoneal fluid; experiment: Peritoneal fluid NET formation (confocal live cell imaging, MPO-DNA complex ELISA); settings: 24 hours after CLP; nNIF 1 mg/kg IV or meropenem 25 mg/kg IP at 4 and 10 hours after CLP; compared to vehicle, scrambled peptide and meropenem groups; N=5-9
Procedure: We evaluated mouse NET formation via live cell imaging with confocal microscopy as previously described ([12]). Sham mice and CLP animals from all experimental groups were euthanized by CO2 inhalation and the peritoneal fluid was collected. An aliquot of 100 μL of the peritoneal fluid was placed on glass coverslips coated with poly-L-lysine for 1 hour at 37°C in 5% CO2/95% air. NET formation was assessed using cell-permeable (SYTO Green, Molecular Probes) and cell-impermeable (SYTOX Orange, Molecular Probes) DNA fluorescent stains. Using a FV3000 1X81 confocal microscope and FluoView software (Olympus) with 20X and 60X objectives, we obtained z-series images over a range of 20 μm with a 1 μm step size for each field. We processed these images using FluoView (Olympus), Photoshop (Adobe), and ImageJ (NIH) software. An in-house ELISA was used to quantify MPO-DNA complexes in plasma and peritoneal fluid from sham and CLP mice 24 hours after the surgical procedure ([24], [27]). Briefly, after overnight coating with anti-MPO capture antibody in calcium carbonate coating buffer (2 µg/ml; 0400-0002, Bio-Rad) at 4°C, a 96-well plate was blocked with 2.5% bovine serum albumin in PBS for 2 hours at room temperature. The plate was subsequently washed, before incubating for 90 minutes at room temperature with 10% peritoneal fluid in blocking buffer. […]

[2] = test system: CLP model of polymicrobial sepsis; experiment: Survival over 6 days after cecal ligation and puncture (CLP)
Procedure: Mice were anesthetized with 3% isoflurane in an induction chamber, and anesthesia was maintained by use of inhalation via nose cone. Sepsis was induced by cecal ligation and puncture (CLP) as previously described ([30], [31]). […] The animals received subcutaneous sterile isotonic saline (0.5 mL) for fluid resuscitation immediately after surgery. Sham-operated mice were subjected to identical procedures, except that ligation and puncture of the cecum was omitted. Survival of mice subjected to CLP or sham injury was determined daily for 6 days. Twenty-four and 48 hours after CLP, all animals were scored for clinical illness severity as previously described ([32]) by an examiner blinded to treatment arm. In this assessment, higher scores reflect increased illness severity with non-surviving mice receiving a score of 10. These mice were included in the statistical analysis. In additional experiments, mature Swiss-webster mice were treated with sham surgery or CLP procedure. […]
For our survival studies, animals were randomly assigned to one of five groups: (a) sham-operated group (Sham); (b) DMSO vehicle treatment group (CLP + DMSO (0.003%/5% Dextrose/H2O, IV); (c) nNIF treatment group ([…], 0.003%/5% Dextrose/H2O, IV); (d) scrambled peptide control treatment group (CLP + nNIF-SCR, 1 mg/kg, 0.003%/5% Dextrose/H2O, IV); and (e) antibiotic treatment group ([…]). Groups a-d received their respective treatment at 4 and 10 hours after CLP. Group e received two doses of meropenem at 4 and 10 hours after CLP and then daily injections for 6 days. In another set of survival studies, mice were treated with nNIF or nNIF-SCR (1 mg/kg, IV) 4 and 10 hours after CLP in combination therapy with a suboptimal dose of meropenem (8 mg/kg, IP) also given 4 and 10 hours after CLP and then once daily. […] Both aliquots of blood and peritoneal fluid were used for the following analyses: leukocyte cell count and differential, bacterial CFU studies, NET quantitation using MPO-DNA complex ELISA, live cell imaging, and multiplex cytokine profiling with specific ELISA confirmation.

[3] = test system: peritoneal fluid and stool microbiomes; experiment: 16S rRNA gene sequencing of peritoneal fluid and stool microbiomes; settings: CLP-treated mice; for relative abundance of Enterobacteriaceae in stool and peritoneal fluid: ANCOM-BC, relative to vehicle; for Bray-Curtis distance of peritoneal fluid microbiome from stool microbiome: each group compared to vehicle
Procedure: Libraries were constructed for sequencing approximately 460 bp of the variable V3 and V4 regions of 16S rRNA using a two-step PCR process. Genomic DNA (5 to 20 ng) was PCR amplified for 14 cycles using the Quick-16S Primer Set V3-V4 (Zymo Research cat# D6405-2-400) with NEBNext Ultra II Q5 Master Mix (NEB cat# M0544). Dual unique indexing adapters (Illumina cat#20027213) were added to the amplicons during a second PCR reaction (6 cycles). 16S libraries were qualified on an Agilent Technologies 4150 TapeStation using a D1000 ScreenTape assay (cat# 5067-5582 and 5067-5583, respectively) and the molarity of adapter-modified molecules was defined by quantitative PCR using the Kapa Biosystems Kapa Library Quant Kit (cat#KK4824). Libraries were normalized and pooled (12 pM) and chemically denatured along with 15% molar representation of PhiX library in preparation for sequencing on an Illumina MiSeq instrument in paired-end 300 cycle mode. Raw 16S sequences were read in and processed with […] 2021.11 plugins ([33]). In brief, demultiplexed and quality-filtered sequences were first trimmed of primer and linker sequences with the Cutadapt plugin, then denoised to ASVs using DADA2 ([34], [35]). […] Diversity metrics, distances, and statistical significance of beta diversity groupings by permanova were further calculated within […]2 artefacts were then read into R and genera tested for differential abundances using ANCOM-BC implemented in the microbiomeMarker package ([37], [38]). Scripts used for processing and analyses have been deposited along with processed QIIME2 artifact files at: https://github.com/wzacs1/Araujo_nNIF. Raw sequences have been deposited in the NCBI SRA under BioProject accession PRJNA884333.

## C[C@@H](O)[C@H]1C(=O)N2C(C(=O)O)=C(S[C@@H]3CN[C@H](C(=O)N(C)C)C3)[C@H](C)[C@H]12 [meropenem, reference compound]
[1]
  peritoneal fluid NET formation (MPO-DNA complexes, confocal microscopy): equivalent between the vehicle and meropenem arms
[2]; sub-optimal meropenem 8 mg/kg IP at 4 and 10 hours after CLP then once daily
  6-day survival: 40%
[3]
  relative abundance of Enterobacteriaceae in stool and peritoneal fluid: decreased in stool and peritoneal fluid
  Bray-Curtis distance of peritoneal fluid microbiome from stool microbiome: more similar stool and peritoneal microbiomes

## KFNKPFVFLMIEQNTKSPLFMGKVVNPTQ-OH [nNIF, neonatal NET-Inhibitory Factor]
[1]
  peritoneal fluid NET formation (MPO-DNA complexes, confocal microscopy): reduced NET formation qualitatively and quantitatively
[2]; nNIF 0.1 mg/kg IV, 2 doses at 4 and 10 hours after CLP, N=10, vehicle (DMSO) control 0%
  6-day survival: 30%
[2]; nNIF 0.5 mg/kg IV, 2 doses at 4 and 10 hours after CLP, N=10, vehicle (DMSO) control 0%
  6-day survival: 70%
[3]; 16S rRNA V3/V4 sequencing, N=5-7 per group
  peritoneal fluid and stool microbiomes (beta diversity, Bray-Curtis, PERMANOVA): did not alter the peritoneal fluid and stool microbiomes
[3]
  relative abundance of Enterobacteriaceae in stool and peritoneal fluid: did not affect their abundances
  Bray-Curtis distance of peritoneal fluid microbiome from stool microbiome: as dissimilar from their stool counterparts as were vehicle controls
